Values quoted from earlier work, collected in PubChem BioAssay AID1259409 (Chemical Carcinogenesis Research Information System (CCRIS), 2018).
Where “and” joins values, the source holds several entries; their conditions need not be identical. Equal entries are not always repeated.

Tested on: rodent chemically induced tumor inhibition, incidence and multiplicity
Experiment: CCRIS tumor inhibitor studies
Conditions: Route [Inhibitor]: ORAL

Question: Which “tumour outcome (control, treated, inhibition, significance)” value (Carcinogen: 3'-METHYL-4-DIMETHYLAMINOAZOBENZENE, 55-80-1, Dose [Inhibitor]: 0.29% IN DIET DAILY FOR 4 WK STARTING 4 WK AFTER THE START OF CARCINOGEN TREATMENT (STUDY DURATION: 20 WK), Species: RAT, Target Tissue: Type of Lesion: LIVER: TUMOR, Dose [Carcinogen]: 0.064% IN DIET DAILY FOR 4 WK THEN A 4 WK CARCINOGEN-FREE PERIOD FOLLOWED BY 0.048% FOR AN ADDITIONAL 4 WK, Promoter: NONE USED) does the source give for `NC(=O)c1cccnc1` here?
Answer: 4/10 (40%), 10/11 (91%), -128%, not calculated

Question: And the “tumour outcome (control, treated, inhibition, significance)” value (Carcinogen: 3'-METHYL-4-DIMETHYLAMINOAZOBENZENE, 55-80-1, Dose [Inhibitor]: 0.29% IN DIET DAILY FOR 4 WK STARTING AFTER COMPLETION OF CARCINOGEN TREATMENT (STUDY DURATION: 20 WK), Species: RAT, Target Tissue: Type of Lesion: LIVER: TUMOR, Dose [Carcinogen]: 0.064% IN DIET DAILY FOR 4 WK, Promoter: NONE USED)?
Answer: 7/15 (47%), 0/17 (0%), 100%, not calculated

Question: And the “tumour outcome (control, treated, inhibition, significance)” value (Carcinogen: 3'-METHYL-4-DIMETHYLAMINOAZOBENZENE, 55-80-1, Dose [Inhibitor]: 0.29% IN DIET DAILY FOR 4 WK STARTING AFTER COMPLETION OF THE FIRST 4 WK OF CARCINOGEN TREATMENT (STUDY DURATION: 20 WK), Species: RAT, Target Tissue: Type of Lesion: LIVER: TUMOR, Dose [Carcinogen]: 0.064% IN DIET DAILY FOR 4 WK BEFORE AND ANOTHER 4 WK AFTER AGENT TREATMENT, Promoter: NONE USED)?
Answer: 7/15 (47%), 9/14 (64%), -36%, not calculated and 7/9 (78%), 6/9 (67%), 14%, not calculated

Question: What about the “tumour outcome (control, treated, inhibition, significance)” value (Carcinogen: 7,12-DIMETHYLBENZ[A]ANTHRACENE, 57-97-6, Dose [Inhibitor]: 0.2% IN DRINKING WATER DAILY STARTING 4 WK BEFORE CARCINOGEN TREATMENT AND CONTINUING FOR DURATION OF THE STUDY (STUDY D, Species: MOUSE, Strain/Sex: 101/MALE, FEMALE, Target Tissue: Type of Lesion: SKIN: PAPILLOMA, Dose [Carcinogen]: 225 UG IN 0.15 ML ACETONE ONCE, Promoter: CROTON OIL, 8001-28-3) of the same compound?
Answer: 17/19 (89%), 17/19 (89%), 0%, not calculated

Question: What about the “tumour outcome (control, treated, inhibition, significance)” value (Carcinogen: N-NITROSOBIS(2-OXOPROPYL)AMINE, 60599-38-4, Dose [Inhibitor]: 0, 0.2% IN DRINKING WATER FOR 49 WK BEGINNING POST CARCINOGEN TREATMENT (STUDY DURATION: 52 WK), Species: HAMSTER, Strain/Sex: SYRIAN/FEMALE, Target Tissue: Type of Lesion: PANCREAS: ADENOCARCINOMA, Dose [Carcinogen]: 10 MG/KG 1/WK FOR 3 WK, Promoter: NONE USED) of the same compound?
Answer: 18/30 (60%), 18/29 (62%), -3%, not significant

Question: What about the “tumour outcome (control, treated, inhibition, significance)” value (Carcinogen: N-NITROSOBIS(2-OXOPROPYL)AMINE, 60599-38-4, Dose [Inhibitor]: 0, 0.2% IN DRINKING WATER FOR 49 WK POST CARCINOGEN TREATMENT (STUDY DURATION: 52 WK), Species: HAMSTER, Strain/Sex: SYRIAN GOLDEN/FEMALE, Target Tissue: Type of Lesion: KIDNEY: NEPHROBLASTOMA, Dose [Carcinogen]: 10 MG/KG BW 1/WK FOR FIRST 3 WK OF STUDY DURATION, Promoter: NONE) of the same compound?
Answer: 2/30 (7%), 0/29 (0%), 100%, not significant

Question: What about the outcome (Carcinogen: N-NITROSOBIS(2-OXOPROPYL)AMINE, 60599-38-4, Dose [Inhibitor]: 0, 0.2% IN DRINKING WATER FOR 49 WK POST CARCINOGEN TREATMENT (STUDY DURATION: 52 WK), Species: HAMSTER, Strain/Sex: SYRIAN GOLDEN/FEMALE, Target Tissue: Type of Lesion: KIDNEY: RENAL CELL ADENOMA, Dose [Carcinogen]: 10 MG/KG BW 1/WK FOR FIRST 3 WK OF STUDY DURATION, Promoter: NONE) of the same compound?
Answer: 0/30 (0%), 1/29 (3%),-%, not significant

Question: And the “tumour outcome (control, treated, inhibition, significance)” value (Carcinogen: N-NITROSOBIS(2-OXOPROPYL)AMINE, 60599-38-4, Dose [Inhibitor]: 0, 0.2% IN DRINKING WATER FOR 49 WK POST CARCINOGEN TREATMENT (STUDY DURATION: 52 WK), Species: HAMSTER, Strain/Sex: SYRIAN GOLDEN/FEMALE, Target Tissue: Type of Lesion: KIDNEY: RENAL CELL CARCINOMA, Dose [Carcinogen]: 10 MG/KG BW 1/WK FOR FIRST 3 WK OF STUDY DURATION, Promoter: NONE)?
Answer: 1/30 (3%), 1/29 (3%), 0%, not significant

Question: What about the “tumour outcome (control, treated, inhibition, significance)” value (Carcinogen: N-NITROSOBIS(2-OXOPROPYL)AMINE, 60599-38-4, Dose [Inhibitor]: 0, 0.2% IN DRINKING WATER FOR 49 WK POST CARCINOGEN TREATMENT (STUDY DURATION: 52 WK), Species: HAMSTER, Strain/Sex: SYRIAN GOLDEN/FEMALE, Target Tissue: Type of Lesion: LIVER: CHOLANGIOCELLULAR ADENOMA, Dose [Carcinogen]: 10 MG/KG BW 1/WK FOR FIRST 3 WK OF STUDY DURATION, Promoter: NONE) of the same compound?
Answer: 1/30 (3%), 2/29 (7%), -133%, not significant

Question: And the outcome (Carcinogen: N-NITROSOBIS(2-OXOPROPYL)AMINE, 60599-38-4, Dose [Inhibitor]: 0, 0.2% IN DRINKING WATER FOR 49 WK POST CARCINOGEN TREATMENT (STUDY DURATION: 52 WK), Species: HAMSTER, Strain/Sex: SYRIAN GOLDEN/FEMALE, Target Tissue: Type of Lesion: LIVER: CHOLANGIOCELLULAR CARCINOMA, Dose [Carcinogen]: 10 MG/KG BW 1/WK FOR FIRST 3 WK OF STUDY DURATION, Promoter: NONE)?
Answer: 0/30 (0%), 5/29 (17%), -%, p<0.05

Question: What about the outcome (Carcinogen: N-NITROSOBIS(2-OXOPROPYL)AMINE, 60599-38-4, Dose [Inhibitor]: 0, 0.2% IN DRINKING WATER FOR 49 WK POST CARCINOGEN TREATMENT (STUDY DURATION: 52 WK), Species: HAMSTER, Strain/Sex: SYRIAN GOLDEN/FEMALE, Target Tissue: Type of Lesion: LIVER: CYSTADENOMA, Dose [Carcinogen]: 10 MG/KG BW 1/WK FOR FIRST 3 WK OF STUDY DURATION, Promoter: NONE) of the same compound?
Answer: 0/30 (0%), 0/29 (0%), 0%, not significant

Question: What about the “tumour outcome (control, treated, inhibition, significance)” value (Carcinogen: N-NITROSOBIS(2-OXOPROPYL)AMINE, 60599-38-4, Dose [Inhibitor]: 0, 0.2% IN DRINKING WATER FOR 49 WK POST CARCINOGEN TREATMENT (STUDY DURATION: 52 WK), Species: HAMSTER, Strain/Sex: SYRIAN GOLDEN/FEMALE, Target Tissue: Type of Lesion: LIVER: HEPATOCELLULAR ADENOMA, Dose [Carcinogen]: 10 MG/KG BW 1/WK FOR FIRST 3 WK OF STUDY DURATION, Promoter: NONE) of the same compound?
Answer: 2/30 (7%), 4/29 (14%), -100%, not significant

Question: And the “tumour outcome (control, treated, inhibition, significance)” value (Carcinogen: N-NITROSOBIS(2-OXOPROPYL)AMINE, 60599-38-4, Dose [Inhibitor]: 0, 0.2% IN DRINKING WATER FOR 49 WK POST CARCINOGEN TREATMENT (STUDY DURATION: 52 WK), Species: HAMSTER, Strain/Sex: SYRIAN GOLDEN/FEMALE, Target Tissue: Type of Lesion: LIVER: HEPATOCELLULAR CARCINOMA, Dose [Carcinogen]: 10 MG/KG BW 1/WK FOR FIRST 3 WK OF STUDY DURATION, Promoter: NONE)?
Answer: 2/30 (7%), 1/29 (3%), 57%, not significant

Question: What about the “tumour outcome (control, treated, inhibition, significance)” value (Carcinogen: N-NITROSOBIS(2-OXOPROPYL)AMINE, 60599-38-4, Dose [Inhibitor]: 0, 0.2% IN DRINKING WATER FOR 49 WK POST CARCINOGEN TREATMENT (STUDY DURATION: 52 WK), Species: HAMSTER, Strain/Sex: SYRIAN GOLDEN/FEMALE, Target Tissue: Type of Lesion: LUNG: ADENOCARCINOMA, Dose [Carcinogen]: 10 MG/KG BW 1/WK FOR FIRST 3 WK OF STUDY DURATION, Promoter: NONE) of the same compound?
Answer: 11/30 (37%), 8/29 (28%), 24%, not significant

Question: And the “tumour outcome (control, treated, inhibition, significance)” value (Carcinogen: N-NITROSOBIS(2-OXOPROPYL)AMINE, 60599-38-4, Dose [Inhibitor]: 0, 0.2% IN DRINKING WATER FOR 49 WK POST CARCINOGEN TREATMENT (STUDY DURATION: 52 WK), Species: HAMSTER, Strain/Sex: SYRIAN GOLDEN/FEMALE, Target Tissue: Type of Lesion: LUNG: ADENOMA, Dose [Carcinogen]: 10 MG/KG BW 1/WK FOR FIRST 3 WK OF STUDY DURATION, Promoter: NONE)?
Answer: 15/30 (50%), 18/29 (62%), -24%, not significant

Question: And the “tumour outcome (control, treated, inhibition, significance)” value (Carcinogen: N-NITROSOBIS(2-OXOPROPYL)AMINE, 60599-38-4, Dose [Inhibitor]: 0, 0.2% IN DRINKING WATER FOR 49 WK POST CARCINOGEN TREATMENT (STUDY DURATION: 52 WK), Species: HAMSTER, Strain/Sex: SYRIAN GOLDEN/FEMALE, Target Tissue: Type of Lesion: LUNG: SQUAMOUS CELL CARCINOMA, Dose [Carcinogen]: 10 MG/KG BW 1/WK FOR FIRST 3 WK OF STUDY DURATION, Promoter: NONE)?
Answer: 2/30 (7%), 0/29 (0%), 100%, not significant

Question: What about the “tumour outcome (control, treated, inhibition, significance)” value (Carcinogen: N-NITROSOBIS(2-OXOPROPYL)AMINE, 60599-38-4, Dose [Inhibitor]: 0, 0.2% IN DRINKING WATER FOR 49 WK POST CARCINOGEN TREATMENT (STUDY DURATION: 52 WK), Species: HAMSTER, Strain/Sex: SYRIAN GOLDEN/FEMALE, Target Tissue: Type of Lesion: PANCREAS (DUCTAL): ADENOCARCINOMA, Dose [Carcinogen]: 10 MG/KG BW 1/WK FOR FIRST 3 WK OF STUDY DURATION, Promoter: NONE) of the same compound?
Answer: 18/30 (60%), 18/29 (62%), -3%, not significant

Question: What about the “tumour outcome (control, treated, inhibition, significance)” value (Carcinogen: N-NITROSOBIS(2-OXOPROPYL)AMINE, 60599-38-4, Dose [Inhibitor]: 0, 0.2% IN DRINKING WATER FOR 49 WK POST CARCINOGEN TREATMENT (STUDY DURATION: 52 WK), Species: HAMSTER, Strain/Sex: SYRIAN GOLDEN/FEMALE, Target Tissue: Type of Lesion: THYROID: ADENOMA, Dose [Carcinogen]: 10 MG/KG BW 1/WK FOR FIRST 3 WK OF STUDY DURATION, Promoter: NONE) of the same compound?
Answer: 1/30 (3%), 0/29 (0%), 100%, not significant
